Ends that are not written are not given here.
Assays:
[1] = system: rd10 and rd10/Serpinf1−/− mice; test: BAX and BCL2 immunofluorescence of retinal sections after peptide eye drops; format: in vivo, mouse; details: eye drops 1 mg/ml, vs vehicle, five retinas per group
Method: Fig. 3: Eyedrops of 17-mer and H105A peptides decreased the BAX/BCL2 ratio in photoreceptors of rd10 and rd10/Serpinf1−/− mice (A and B) Immunostaining of retinas. Representative fluorescent micrographs of retinas from rd10 (A) and rd10/Serpinf1^−/− (B) mice treated with 17-mer or H105A peptides at 1 mg/ml via eye drops, along with vehicle-treated controls. Immunostaining was performed with antibodies against BAX or BCL2 (green), and DAPI (blue). Histograms show quantification of immunofluorescence intensity for BAX and BCL2 markers. […] Each individual data point represents the average of one retina, with statistical significance determined by unpaired t-test (***p < 0.0001, ****p < 0.00001). Scale bar = 40 μm.
(§1) Both eyes were oriented before enucleation to allow sectioning along the dorsal/ventral axis. Enucleated eyes from rd10 and rd10 × Serpinf1^−/− mice were incised in the cornea and fixed in 2.5% glutaraldehyde for 20 min and then in 10% neutral buffered formalin at 4°C for at least 48 h, followed by paraffin embedding, sectioning, and staining with either H&E or immunofluorescence procedures, as previously described ([28]). For fluorescence microscopy, antibodies, and 0.1 μg/ml DAPI were used to immunostain and nuclei counterstain the sections, respectively. Antibodies used in the study are in Table S3. Images were acquired using a ZEIS 700 confocal microscope. Fluorescence intensity was quantified using ImageJ as previously described ([14], [26]).

[2] = system: rd10 and rd10/Serpinf1−/− mice; test: Retinal histology (H&E), OS length and ONL thickness spider plots after peptide eye drops; format: in vivo, mouse; details: for outer nuclear layer (ONL) thickness vs vehicle-treated or untreated eyes / photoreceptor outer segment (OS) length vs vehicle-treated or untreated eyes / ONL thickness (spider plots): daily eye drops 1 mg/ml, P21; for outer nuclear layer (ONL) thickness vs vehicle-treated or untreated eyes / photoreceptor outer segment (OS) length vs vehicle-treated or untreated eyes: rd10 and rd10/Serpinf1−/− mice; for ONL thickness (spider plots): rd10 mice only
Method: Fig. 4: Effect of eyedrops of 17-mer and H105A peptides on photoreceptor morphology of rd10 and rd10/Serpinf1−/− mice (A and B) Histological Evaluation. Representative microphotographs of retina sections from rd10 (A) and rd10/Serpinf1−/− (B) mice treated with 17-mer, H105A, or R99A peptides at 1 mg/ml, or with vehicle (HBSS), compared to wild type C57Bl/6J mice. Sections were stained with hematoxylin and eosin. Spider Plot illustrate the thickness of the outer nuclear layer (ONL) in rd10 (C) and rd10/Serpinf1−/− (D) mice. Five retinas per group were analyzed and each data point represents the average ± SEM per location relative to the optic nerve (ON), analyzed using One-way ANOVA. Statistics for comparisons between H105A and vehicle is indicated by #p < 0.05, #p < 0.05, ##p < 0.01, ###p < 0.001). Statistics for comparisons between H105A and 17-mer is indicated by *p < 0.05. Scale bar = 50 μm.
as §1
To generate spider plots, the ONL thickness was measured from images acquired with light microscopy of the retina sections stained with H&E or images of retina sections stained with DAPI with a dorsal-ventral orientation. The ONL thickness in the entire retina sections was measured at 5 different positions from both sides of the optic nerve (ON) using ImageJ, as described before ([28]). Alternatively, for DAPI stained images, a customed macro implemented in ImageJ was used to select only the ONL.
Figure S2. Effects of extending the timeline or administering eye drops of 17-mer[H105A] peptide every other day in rd10 mic e.
Eye drops of H105A peptide solution were administered to r d1 0 mice either daily (Fig. S2A) or every other day (Fi g. S 2D). A total of 5 µl of a solution containing H105A peptide at 1 mg/ml in HBSS were applied as eye drops. The vehicle HBSS was added as eye drops in the contralateral eyes. […]
ONL thickness in r d10 mice compared to vehicle was also observed (Fi g. S 2E), with an improvement in a- […]
efficacy of peptide H105A eye drops either daily or every other day in an extended timeline to stabilize photoreceptor morphology and light response function loss in r d10 mice, however, these were less efficacious than daily H105A peptide eye drops.
(A) Scheme showing a timeline of peptide administration via daily eye drops of H105A peptide to r d10 mice between P15 and P2 4. […]
(B) Representative microphotographs of retinal cross sections of r d1 0 treated as in Fig. S2A and stained with hematoxylin and eosin are shown. […]
(D) Scheme showing a timeline of peptide administration via eye drops of H105A peptide to rd10 mice starting at P15 every other day until P23. Assays were at P25.
(E) Representative microphotographs of retinal cross sections of r d1 0 treated as in Fig. S2D and stained […]
average ± SD per location relative to the ON per genotype by unpaired t-test. *p < 0.05, […]
(F) ERG of r d1 0 mice at P25 and treated as in Fig. S2D were performed in response to a STR. […]

| Sequence | BAX level in photoreceptors (immunofluorescence) [1] | BCL2 level in photoreceptors (immunofluorescence) [1] | outer nuclear layer (ONL) thickness vs vehicle-treated or untreated eyes [2] | photoreceptor outer segment (OS) length vs vehicle-treated or untreated eyes [2] | ONL thickness (spider plots) [2] | ONL thickness ([2]; rd10 mice, daily eye drops 5 μl of 1 mg/ml P15 until P24, assayed at P25) | ONL thickness compared to vehicle ([2]; rd10 mice, eye drops every other day P15 until P23, assayed at P25) |
| --- | --- | --- | --- | --- | --- | --- | --- |
| QRTESIIARALYYDLIS [H105A] | significantly decreased | increased | thicker outer nuclear layer | longer OS | to almost wild-type levels | rescue in the ONL thickness | rescue |
| QRTESIIHRALYYDLIS [17-mer] | significantly decreased | increased | thicker outer nuclear layer | longer OS | restored ONL thickness |  |  |

Reference: article doi:10.1101/2024.07.10.602890, “H105A peptide eye drops promote photoreceptor survival in murine and human models of retinal degeneration” (bioRxiv, 2024)
